Measured values as given in ChEMBL document CHEMBL2311506, “Novel benzoxazole inhibitors of mPGES-1” (Bioorg Med Chem Lett, 2013).
pIC50: −log10 of the molar value.

Columns and labels:
Prostaglandin E synthase = biological target: T1, Prostaglandin E synthase (Homo sapiens, UniProt O14684); test: Inhibition of human recombinant mPGES-1 using PGH2 as substrate incubated 20 mins prior to substrate addition measured after 30 secs by EIA
T1 sequence (O14684 whole entry): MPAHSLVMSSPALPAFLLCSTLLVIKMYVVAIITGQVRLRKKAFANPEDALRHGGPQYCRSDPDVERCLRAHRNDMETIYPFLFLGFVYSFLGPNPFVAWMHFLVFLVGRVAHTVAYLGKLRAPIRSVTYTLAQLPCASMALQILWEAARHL

[1] = Inhibition of rat mPGES-1 transfected in CHOK1 cells using [3H]PGH2 as substrate; assay type: cell-based; conditions: cho-k1
[2] = Tmax in dog at 0.5 mg/kg, po; assay type: ADME, organism-based, Canis lupus familiaris; set-up: dose 0.5 mg/kg, route oral; conditions: in vivo
[3] = Plasma protein binding in rat; assay type: ADME, cell-free; conditions: read-out: PPB (converted)
[4] = Half life in dog at 0.25 mg/kg, iv; assay type: ADME, organism-based, Canis lupus familiaris; set-up: dose 0.25 mg/kg, route intravenous; conditions: in vivo
[5] = Oral bioavailability in dog at 0.5; assay type: ADME, organism-based, Canis lupus familiaris; conditions: in vivo
[6] = Half life in human liver microsomes; assay type: ADME, Microsome
[7] = biological target: T2, Prostaglandin G/H synthase 2 (Homo sapiens, UniProt P35354); test: Inhibition of COX2 in human fetal fibroblast assessed as SnCl2-induced PGF2alpha production after 40 mins by ELISA
T2 sequence (P35354 whole entry): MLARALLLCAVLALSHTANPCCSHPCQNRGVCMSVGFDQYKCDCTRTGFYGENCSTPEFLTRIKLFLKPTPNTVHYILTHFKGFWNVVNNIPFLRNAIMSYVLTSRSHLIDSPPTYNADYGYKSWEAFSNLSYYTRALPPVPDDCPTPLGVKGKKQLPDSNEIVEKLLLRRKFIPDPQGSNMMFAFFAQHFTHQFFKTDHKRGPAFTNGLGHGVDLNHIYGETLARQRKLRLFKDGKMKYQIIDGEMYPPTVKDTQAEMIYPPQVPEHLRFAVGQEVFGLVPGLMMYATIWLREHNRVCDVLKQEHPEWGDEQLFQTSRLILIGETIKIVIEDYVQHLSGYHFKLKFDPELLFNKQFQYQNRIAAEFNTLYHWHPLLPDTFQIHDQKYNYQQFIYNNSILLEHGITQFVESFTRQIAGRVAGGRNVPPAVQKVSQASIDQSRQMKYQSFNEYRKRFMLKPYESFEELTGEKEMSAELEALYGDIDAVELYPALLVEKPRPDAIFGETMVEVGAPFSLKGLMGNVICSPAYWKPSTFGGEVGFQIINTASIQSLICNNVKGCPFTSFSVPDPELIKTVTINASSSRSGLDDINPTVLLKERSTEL

[8] = Cmax in dog at 0.5 mg/kg, po; assay type: ADME, organism-based, Canis lupus familiaris; set-up: dose 0.5 mg/kg, route oral; conditions: in vivo
[9] = Inhibition of recombinant rat mPGES-1 using PGH2 as substrate incubated 20 mins prior to substrate addition measured after 30 secs by EIA
[10] = Permeability of the compound by pampa; assay type: ADME; conditions: read-out: permeability
[11] = Volume of distribution at steady state in dog at 0.25 mg/kg, iv; assay type: ADME, organism-based, Canis lupus familiaris; set-up: dose 0.25 mg/kg, route intravenous; conditions: in vivo, read-out: Vdss
[12] = Mean residence time in dog at 0.25 mg/kg, iv; assay type: ADME, organism-based, Canis lupus familiaris; set-up: dose 0.25 mg/kg, route intravenous; conditions: in vivo
[13] = Half life in rat liver microsomes; assay type: ADME, Microsome
[14] = biological target: Hematopoietic prostaglandin D synthase (Homo sapiens, UniProt O60760); test: Inhibition of human PGDS
[15] = Half life in human hepatocytes; assay type: ADME, cell-based, Hepatocyte
[16] = Plasma protein binding in human; assay type: ADME, cell-free; conditions: read-out: PPB (converted)

Chain of Hematopoietic prostaglandin D synthase (O60760 whole entry): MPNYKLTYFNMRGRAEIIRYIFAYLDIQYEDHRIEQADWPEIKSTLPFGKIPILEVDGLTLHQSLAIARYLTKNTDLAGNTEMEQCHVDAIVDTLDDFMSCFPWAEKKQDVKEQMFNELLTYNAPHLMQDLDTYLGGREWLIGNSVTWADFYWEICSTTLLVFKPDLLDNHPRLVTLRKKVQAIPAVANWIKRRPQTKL

| Structure (SMILES) | pIC50 (Prostaglandin E synthase) | other results |
| --- | --- | --- |
| CC1CCCC1NC(=O)C1CCN(c2nc3cc(Cl)ccc3o2)CC1 (stereo unspecified) | 6.62 |  |
| CC(C)c1ccc2c(c1)c(SC(C)(C)C)c(CC(C)(C)C(=O)O)n2Cc1ccc(Cl)cc1 |  | pIC50 [1]: 5.09 |
| O=C(N[C@H]1CCC[C@@H]1OCc1ccccc1)C1CCN(c2nc3cc(Cl)ccc3o2)CC1 |  | Tmax [2]: 30 min; fraction unbound [3]: 0.02; half-life [4]: 432 min; bioavailability [5]: 55%; half-life [6]: 10.8 min; pIC50 [7]: < 4.00; Cmax [8]: 1300 nM; pIC50 [9]: < 5.00; Papp [10]: 1.3 ×10⁻⁶ cm/s; Vd [11]: 1 L/kg; MRT [12]: 486 min; half-life [13]: 7.2 min; pIC50 [14]: < 5.00; half-life [15]: 80 min |
| O=C(N[C@@H]1CCC[C@H]1OCC1CCCC1)C1CCN(c2nc3cc(Cl)ccc3o2)CC1 | 6.75 |  |
| O=C(NC1CCCC1c1ccccc1)C1CCN(c2nc3cc(Cl)ccc3o2)CC1 (stereo unspecified) | 6.54 |  |
| O=C(NC1CCCC1)C1CCN(c2nc3cc(Cl)ccc3o2)CC1 |  | pIC50 [7]: < 4.00; fraction unbound [16]: 0.005 |
| O=C(N[C@@H]1CCC[C@@H]1COc1ccccc1)C1CCN(c2nc3cc(Cl)ccc3o2)CC1 | 7.37 |  |
| O=C(N[C@H]1CCC[C@@H]1COc1ccccc1)C1CCN(c2nc3cc(Cl)ccc3o2)CC1 | 7.47 | fraction unbound [16]: < 0.01 |
| CO[C@@H]1CCC[C@H]1NC(=O)C1CCN(c2nc3cc(Cl)ccc3o2)CC1 | 5.09 |  |
| O=C(NC1CCCC1C(=O)O)C1CCN(c2nc3cc(Cl)ccc3o2)CC1 (stereo unspecified) | 5.14 |  |

Continued, in another order:

| pIC50 (Prostaglandin E synthase) | Structure (SMILES) | other results |
| --- | --- | --- |
| 5.52 | O=C(NC1CCC1)C1CCN(c2nc3cc(Cl)ccc3o2)CC1 |  |
| < 4.52 | CN(C(=O)C1CCN(c2nc3cc(Cl)ccc3o2)CC1)C1CCCC1 |  |
| 5.49 | O=C(N[C@H]1CCC[C@@H]1CO)C1CCN(c2nc3cc(Cl)ccc3o2)CC1 |  |
| 6.11 | O=C(N[C@@H]1CCC[C@@H]1CO)C1CCN(c2nc3cc(Cl)ccc3o2)CC1 |  |
| 5.92 | CSCCNC(=O)C1CCN(c2nc3cc(Cl)ccc3o2)CC1 |  |
| < 5.00 | O=C(NC1CCCC1)N1CCN(c2nc3cc(Cl)ccc3o2)CC1 |  |
| < 5.00 | O=S(=O)(NC1CCCC1)C1CCN(c2nc3cc(Cl)ccc3o2)CC1 |  |
| 6.09 | O=C(NC1CCCCCC1)C1CCN(c2nc3cc(Cl)ccc3o2)CC1 |  |
| < 5.00 | O=C(CCCNc1nc2cc(Cl)ccc2o1)NC1CCCC1 |  |
| 4.89 | O=C(NC1CCCC1)N1CCCN(c2nc3cc(Cl)ccc3o2)CC1 |  |
| 6.08 | CCCCO[C@@H]1CCC[C@H]1NC(=O)C1CCN(c2nc3cc(Cl)ccc3o2)CC1 |  |
